Test results from patent US20110230659A1, “CYCLOBUTYL PURINE DERIVATIVE, ANGIOGENESIS PROMOTING AGENT, LUMEN FORMATION PROMOTING AGENT, NEUROCYTE GROWTH PROMOTING AGENT, AND DRUG” (NATIONAL UNIVERSITY CORPORATION KAGAWA UNIVERSITY, priority 2008, published 2011).

What was measured:
[1] = tested on: rat adrenal medulla-derived cell line PC12; assay: Differentiation of PC12 cells, morphological change (micrographs); format: cell-based; conditions: 2-Cl—C.OXT-A at 50 μmol/l and 100 μmol/l; sixth day of culture
Protocol: In the present example, using rat adrenal medulla-derived cell line PC12, which is neurocyte model cells, obtained from the RIKEN BioResource Center, the effect of 2-Cl—C.OXT-A of Example 1 on the differentiation of PC12 cells was examined.
(§1) Three samples were prepared by adding additives shown in Table 5 below to PBS so as to achieve predetermined concentrations. Also, an evaluation medium was prepared by adding each sample or PBS to DMEM (no serum) so that its concentration became 10 v/v %. Furthermore, as a control medium, a medium containing only DMEM (no serum) was prepared. […] On the sixth day of the culture, the cells were photographed under a microscope, and the AChE activity was measured according to the Ellman's method (Ellman, G. L., et al., Biochem. Pharmacol., 7, pp. 88-95, (1961)). Specifically, the AChE activity was measured in the following manner. […] The sample solution, 75 μl of 10 mmol/l DTNB, and 3.0 ml of 0.1 mol/l phosphate buffer solution (pH 8.0) were added to a […] for absorbance measurement, and finally, 50 μl of 100 mmol/l acetylthiocholine was added to cause a reaction. The absorbance of the reaction solution at 412 nm was measured for 5 minutes from immediately after the addition of the ace tylthiocholine. From the thus-measured absorbances, the amount of increase in absorbance (C) per minute was determined. […]

[2] = tested on: rat adrenal medulla-derived cell line PC12; assay: Differentiation of PC12 cells, AChE activity (Ellman's method); format: cell-based; conditions: 2-Cl—C.OXT-A 50 μmol/l and 100 μmol/l, sixth day of culture
Protocol: as §1, with “prepared. The PC12 cells were suspended at a density of 5×10^4 cells/ml in DMEM to which 5 v/v % cow serum and 10 v/v % horse serum had been added. Thus, a cell suspension was prepared. 3 ml of the cell suspension was inoculated into a 6 petri dish.” for “prepared.”

ERK = ERK activation (phosphorylation) immunoblot in HUVEC; format: cell-based, human; conditions: Example 8, medium No. 11: 2-Cl—C.OXT-A 100 μmol/l

Nc1nc(Cl)nc2c1ncn2C1CC(CO)C1CO (stereo not drawn) [2-Cl—C.OXT-A, 6-amino-2-chloro-9-[trans-trans-2,3-bis(hydroxymethyl)cyclobutyl]purine]
morphological change of PC12 cells (axon extension) [1]: cells from which linear axons extend were observed | AChE enzyme activity (relative value) [2]: increased | pERK (ERK): increased
